Square brackets hold non-standard residues; d marks the D form. Peptide text beside a SMILES is read from it.
How the values were obtained:
[1] = In vitro peptide stability in human serum (RP-HPLC); conditions: for half-life at 50 µg/mL: human, human serum, 25% (v/v) in RPMI
Protocol: The initial time is recorded, and at known time intervals 50 µL of the reaction solution is removed and added to 100 µL of 6% aqueous trichloroacetic acid (TCA) for precipitation of serum proteins. […] The reaction supernatant is then analyzed using RP-HPLC (Agilent 1200 LC System) on a ZORBAX Eclipse XDB-C18, 4.6×150 mm, 5 µm column (Agilent). […] Fluorescence is detected at an excitation wavelength of 280 nm and emission wavelength of 340 nm. Kinetic analysis was carried out by least-squares analysis of the logarithm of the integration peak area versus time.

human CMKLR1 = target: T1, human CMKLR1 (Homo sapiens, UniProt Q99788); experiment: Ca2+ mobilization (CellLux imaging) agonist assay in HEK293A cells expressing CMKLR1 and Gα15; assay type: cell-based; conditions: Ca2+ mobilization, CMKLR1, decimal comma; for EC50: NR where no EC50 is given, read-out: EC50
T1 construct: host or cells: HEK293A (Invitrogen), stably expressing human Gα15
T1 sequence (Q99788 1-373): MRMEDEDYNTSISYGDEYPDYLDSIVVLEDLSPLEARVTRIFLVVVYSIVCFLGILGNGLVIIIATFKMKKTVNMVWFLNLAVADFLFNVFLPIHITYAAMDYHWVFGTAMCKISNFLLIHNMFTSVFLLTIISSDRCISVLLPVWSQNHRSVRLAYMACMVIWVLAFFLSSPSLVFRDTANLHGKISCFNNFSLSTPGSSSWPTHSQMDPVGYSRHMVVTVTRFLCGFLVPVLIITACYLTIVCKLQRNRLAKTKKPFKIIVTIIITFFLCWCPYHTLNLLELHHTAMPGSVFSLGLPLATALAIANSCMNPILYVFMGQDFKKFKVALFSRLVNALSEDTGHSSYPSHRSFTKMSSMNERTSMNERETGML
Protocol: HEK293A cells (Invitrogen) expressing CMKLR1 and Gα15 were seeded at 5*10^4 cells/well in a poly-D-lysine coated 96-well black well/clear bottom plate (BD Falcon) and cultured overnight. From eighteen to twenty-four hours later, cells were loaded with FLUO4-AM (Invitrogen). Then the cells were washed two times with C1 solution (130 mM NaCl, 5 mM KCl, 10 mM HEPES pH 7.4, 2 mM CaCl2, and 10 mM Glucose). After the final wash, a 100 µL of residual volume remained on the cells. Peptides were dissolved in 10% DMSO to a concentration of 1 mM and were diluted in C1 solution with 0.1 % BSA. They were aliquoted as 2x solutions in 96-well plates and were simultaneously transferred by the robotic system within the imager from the ligand plate to the cell plate. […] Fluorescence data was generated in duplicate and experiments were repeated for at least three times. […] For the calculation of concentration-response curves, signals of two wells receiving the same concentration of test substances were averaged and the fluorescence changes of corresponding buffer C1 wells were subtracted. Signals were normalized to background fluorescence. For the calculation of EC50 values, plots of amplitude versus concentrations were prepared in SigmaPlot 11.

SMILES | t1/2 ([1]; metabolic stability in human serum) | max response (human CMKLR1) | half-life at 50 µg/mL [1] | EC50 (human CMKLR1)
CC(C)[C@H](NC(=O)[C@@H](N)Cc1ccc(O)cc1)C(=O)N1CCC[C@H]1C(=O)NCC(=O)N[C@@H](CCC(N)=O)C(=O)N[C@@H](Cc1ccccc1)C(=O)N[C@@H](C)C(=O)N[C@@H](Cc1ccccc1)C(=O)N[C@H](Cc1ccccc1)C(=O)O [compound 35] (H-YVPGQFAF[dF]-OH; N-terminus assumed) | 42 min | 0,96 DF/F0 | – | –
CC(C)C[C@H](NC(=O)[C@@H](N)Cc1ccc(O)cc1)C(=O)N1CCC[C@H]1C(=O)NCC(=O)N[C@@H](CCC(N)=O)C(=O)N[C@@H](Cc1ccccc1)C(=O)N[C@H](Cc1c[nH]c2ccccc12)C(=O)N[C@@H](Cc1ccccc1)C(=O)N[C@@H](CO)C(=O)O [compound 41] (H-YLPGQF[dW]FS-OH; N-terminus assumed) | – | 0,94 DF/F0 | 45 min | 7.23 nM
CC(C)C[C@H](NC(=O)[C@@H](N)Cc1ccc(O)cc1)C(=O)N1CCC[C@H]1C(=O)NCC(=O)N[C@@H](CCC(N)=O)C(=O)N[C@@H](Cc1ccccc1)C(=O)N[C@@H](C)C(=O)N[C@H](Cc1ccccc1)C(=O)N[C@@H](Cc1ccccc1)C(=O)O [compound 42] (H-YLPGQFA[dF]F-OH; N-terminus assumed) | – | 1,07 DF/F0 | 30 min | 8.93 nM
CC(C)C[C@H](NC(=O)[C@H](N)Cc1ccccc1)C(=O)N1CCC[C@H]1C(=O)NCC(=O)N[C@@H](CCC(N)=O)C(=O)N[C@@H](Cc1ccc(O)cc1)C(=O)N[C@@H](C)C(=O)N[C@@H](Cc1ccccc1)C(=O)N[C@@H](Cc1ccccc1)C(=O)O [compound 55] (H-[dF]LPGQYAFF-OH; N-terminus assumed) | – | 0,73 DF/F0 | 230 min | 92.9 nM
CC(C)C[C@H](NC(=O)[C@@H](N)Cc1ccc(O)cc1)C(=O)N1CCC[C@H]1C(=O)NCC(=O)N[C@@H](CCC(N)=O)C(=O)N[C@@H](Cc1ccccc1)C(=O)N[C@H](Cc1ccc(O)cc1)C(=O)N[C@@H](Cc1ccccc1)C(=O)N[C@@H](CO)C(=O)O [compound 57] (H-YLPGQF[dY]FS-OH; N-terminus assumed) | – | 0,89 DF/F0 | 26 min | 119 nM
CC(C)C[C@H](NC(=O)[C@@H]1CCCN1)C(=O)N1CCC[C@H]1C(=O)NCC(=O)N[C@@H](CCC(N)=O)C(=O)N[C@H](Cc1ccccc1)C(=O)N[C@@H](C)C(=O)N[C@@H](Cc1ccccc1)C(=O)N[C@@H](Cc1ccccc1)C(=O)O [compound 58] (H-PLPGQ[dF]AFF-OH; N-terminus assumed) | – | 0,81 DF/F0 | 33 min | 286 nM
CC(C)C[C@H](NC(=O)[C@@H](N)Cc1ccccc1)C(=O)N1CCC[C@H]1C(=O)NCC(=O)N[C@@H](CCC(N)=O)C(=O)NCC(=O)N[C@H](Cc1ccccc1)C(=O)N[C@@H](Cc1ccccc1)C(=O)N[C@@H](CO)C(=O)O [compound 61] (H-FLPGQG[dF]FS-OH; N-terminus assumed) | – | 0,73 DF/F0 | 41 min | 456 nM
CC(C)C[C@H](NC(=O)[C@@H](N)CCC(N)=O)C(=O)N1CCC[C@H]1C(=O)NCC(=O)N[C@@H](CCC(N)=O)C(=O)N[C@@H](Cc1ccccc1)C(=O)N[C@@H](C)C(=O)N[C@H](Cc1ccccc1)C(=O)N[C@@H](Cc1ccccc1)C(=O)O [compound 71] (H-QLPGQFA[dF]F-OH; N-terminus assumed) | – | 0,66 DF/F0 | 31 min | 2460 nM
CC(C)C[C@H](NC(=O)[C@H](Cc1ccccc1)NC(=O)CNC(=O)[C@@H]1CCCN1C(=O)[C@H](CC(C)C)NC(=O)[C@@H](N)Cc1ccccc1)C(=O)N[C@@H](C)C(=O)N[C@@H](CC(C)C)C(=O)N1CCC[C@@H]1C(=O)O [compound 72] (H-FLPGFLAL[dP]-OH; N-terminus assumed) | – | 0,64 DF/F0 | 218 min | 2610 nM
